Results published in ChEMBL document CHEMBL4699464, “Talascortenes A-G, Highly Oxygenated Diterpenoid Acids from the Sea-Anemone-Derived Endozoic Fungus Talaromyces scorteus AS-242” (2020).
Converted amounts (≈) assume the structure as drawn.

Experiments:
Type in all cases: functional
[1] = tested on: Escherichia coli; experiment: Antimicrobial activity against Escherichia coli EMBLC-1 by serial dilution technique
[2] = tested on: Edwardsiella tarda; experiment: Antimicrobial activity against Edwardsiella tarda QDIO-9 by serial dilution technique
[3] = tested on: Pseudomonas aeruginosa; experiment: Antimicrobial activity against Pseudomonas aeruginosa QDIO-4 by serial dilution technique
[4] = tested on: Vibrio harveyi; experiment: Antimicrobial activity against Vibrio harveyi QDIO-7 by serial dilution technique
[5] = tested on: Aeromonas hydrophila; experiment: Antimicrobial activity against Aeromonas hydrophila QDIO-1 by serial dilution technique
[6] = tested on: Micrococcus luteus; experiment: Antimicrobial activity against Micrococcus luteus QDIO-3 by serial dilution technique
[7] = tested on: Vibrio parahaemolyticus; experiment: Antimicrobial activity against Vibrio parahaemolyticus QDIO-8 by serial dilution technique
[8] = tested on: Ceratobasidium cereale; experiment: Antimicrobial activity against Rhizoctonia cerealis QDAU-20 by serial dilution technique
[9] = tested on: Gaeumannomyces graminis; experiment: Antimicrobial activity against Gaeumannomyces graminis QDAU-21 by serial dilution technique
[10] = tested on: Fusarium oxysporum; experiment: Antimicrobial activity against Fusarium oxysporum QDAU-8 by serial dilution technique
[11] = tested on: Colletotrichum gloeosporioides; experiment: Antimicrobial activity against Colletotrichum gloeosporioides QDAU-2 by serial dilution technique

| Compound | MIC [1] [µg/mL] | MIC [2] [µg/mL] | MIC [3] [µg/mL] | MIC [4] [µg/mL] | MIC [5] [µg/mL] | MIC [6] [µg/mL] | MIC [7] [µg/mL] | MIC [8] [µg/mL] | MIC [9] [µg/mL] | MIC [10] [µg/mL] | MIC [11] [µg/mL] |
| --- | --- | --- | --- | --- | --- | --- | --- | --- | --- | --- | --- |
| C=C[C@]1(C)CCC2=C(CC[C@]3(O)[C@@](C)(C(=O)O)CCC[C@]23C)[C@H]1O | 16 (≈ 47.8 µM) | > 32 | > 32 | 8 (≈ 23.9 µM) | 16 (≈ 47.8 µM) | > 32 | > 32 | > 32 | > 32 | > 32 | > 32 |
| C=C[C@]1(C)CCC2=C(CC[C@@]3(O)[C@@](C)(C(=O)O)[C@H](O)CC[C@]23C)[C@H]1O | 8 (≈ 22.8 µM) | > 32 | > 32 | > 32 | > 32 | > 32 | > 32 | > 32 | > 32 | > 32 | > 32 |
| C[C@]1(O)C[C@]23CC[C@H]1C[C@@H]2[C@@]1(C)CCC[C@](C)(C(=O)O)[C@]1(O)CC3 | 32 (≈ 95.1 µM) | 16 (≈ 47.6 µM) | 16 (≈ 47.6 µM) | > 32 | > 32 | 2 (≈ 5.94 µM) | > 32 | 8 (≈ 23.8 µM) | 4 (≈ 11.9 µM) | 16 (≈ 47.6 µM) | > 32 |
| C=C[C@]1(C)CC[C@@]2(O)[C@](O)(CC[C@]3(O)[C@]2(C)CCC[C@]3(C)C(=O)O)C1 | 8 (≈ 22.7 µM) | > 32 | > 32 | > 32 | > 32 | > 32 | > 32 | > 32 | > 32 | > 32 | > 32 |
| C=C[C@H]1[C@@H]2CC[C@@]3(O)[C@@](C)(C(=O)O)[C@H](O)CC[C@]3(C)[C@H]2CC[C@@]1(O)CCl | > 32 | > 32 | > 32 | > 32 | > 32 | 4 (≈ 10.3 µM) | 32 (≈ 82.7 µM) | > 32 | > 32 | > 32 | > 32 |
| C=C[C@]1(C)CCC2=C(CC[C@@]3(O)[C@@](C)(C(=O)O)CCC[C@]23C)[C@H]1OC | 1 (≈ 2.87 µM) | > 32 | > 32 | > 32 | > 32 | 8 (≈ 23 µM) | > 32 | > 32 | > 32 | > 32 | 2 (≈ 5.74 µM) |
| C=C1CC[C@]2(O)[C@](C)(CCC[C@]2(C)C(=O)O)[C@]1(O)CC/C(C)=C/CO | > 32 | > 32 | > 32 | > 32 | > 32 | > 32 | 8 (≈ 22.7 µM) | > 32 | > 32 | > 32 | > 32 |
| C=C[C@]1(C)CCC2=C(CC[C@@]3(O)[C@@](C)(C(=O)O)[C@H](O)CC[C@]23C)[C@@H]1OC | > 32 | > 32 | 32 (≈ 87.8 µM) | > 32 | > 32 | > 32 | 8 (≈ 21.9 µM) | > 32 | > 32 | > 32 | > 32 |
| C[C@@H]1[C@H](O)[C@@H](C)/C=C/C=C/C=C/C=C/C=C/C=C/C=C/[C@H](O[C@@H]2O[C@H](C)[C@@H](O)[C@H](N)[C@@H]2O)C[C@@H]2O[C@](O)(C[C@@H](O)C[C@@H](O)[C@H](O)CC[C@@H](O)C[C@@H](O)CC(=O)O[C@H]1C)C[C@H](O)[C@H]2C(=O)O [AMPHOTERICIN B] | – | – | – | – | – | – | – | 1 (≈ 1.08 µM) | 1 (≈ 1.08 µM) | 0.5 (≈ 0.541 µM) | 2 (≈ 2.16 µM) |
| O=C(N[C@H](CO)[C@H](O)c1ccc([N+](=O)[O-])cc1)C(Cl)Cl [CHLORAMPHENICOL] | 1 (≈ 3.09 µM) | 0.5 (≈ 1.55 µM) | 2 (≈ 6.19 µM) | 2 (≈ 6.19 µM) | 4 (≈ 12.4 µM) | 1 (≈ 3.09 µM) | 0.5 (≈ 1.55 µM) | – | – | – | – |
